The values below come from patent publication EP3868759A1, “2,3,5-SUBSTITUTED PYRROLO[2,3-B]PYRIDINES AS ERBB MODULATORS USEFUL FOR TREATING CANCER” (PearlRiver Bio GmbH, priority 2020, dated 2021).

The target of one experiment is EGFR T790M L858R (Homo sapiens, UniProt P00533, L858R/T790M). The experiment can be described thus: Lance assay, EGFR T790M L858R. The note with it: biochemical Lance assay.
The test system of another experiment is EGFR L858R T790M Ba/F3. The experiment can be described thus: CellTiter-Glo cell viability, EGFR L858R T790M Ba/F3. The note with it: Mus musculus, BaF3, 72 h, read-out: EGFR L858R T790M Ba/F3 CTG IC50 /. It is filed as cell-based. On the procedure: (§1) The CellTiter-Glo Luminescent Cell Viability Assay (Promega) is a homogeneous method of determining the number of viable cells in culture. It is based on quantification of ATP, indicating the presence of metabolically active cells. Cells are seeded on day 1 at cell numbers that assure assay linearity and optimal signal intensity. After incubation for 24h in humidified chambers at 37°C and 5% CO2, compounds in DMSO are added at different concentrations. Cells are further incubated for 72 h at 37°C and 5% CO2. Cells treated with the compound vehicle DMSO are used as positive controls and cells treated with 10 µM Staurosporine serve as negative controls. At day 5 the CellTiter Glo Reagent is prepared according to the instructions of the kit (Promega Inc.): Reagent is mixed 1:1 with cell culture medium. Thereon, mixture and assay plates are equilibrated at room temperature for 20 min. Equal volumes of the reagent-medium-mixture is added to the volume of culture medium present in each well. The plates are mixed at ∼200 rpm for 2 minutes on an orbital shaker. The microplates are then incubated at room temperature for 10 minutes for stabilization of the luminescent signal. Following incubation the luminescence is recorded on a Victor microplate reader (Perkin Elmer) using a 200 ms integration time. The data is then analyzed with Excel using the XLFIT Plugin (dose response Fit 205) for IC50-determination. As quality control the Z'-factor is calculated from 16 positive and negative control values. Only assay results showing a Z'-factor ≥ 0.5 are used for further analysis.

The next experiment deals with T1, HER2 INS YVMA (Homo sapiens, UniProt P04626, INS775YVMA).
T1 construct: purchased DPF
The experiment can be described thus: Lance Kinase Activity Assay, Her2 Exon 20 InsYVMA. To be noted: biochemical Lance assay. The method, then:
This protocol describes how the Lance Kinase Activity Assay was performed to determine IC50 values of compounds of general formula (I) against HER2 INS YVMA. The principle behind this enzymatic assay is based upon the phosphorylation of the Ulight-peptide substrate. It is detected by using a specific EU-labeled anti-phospho peptide antibody. The binding of the Eu labeled anti-phospho peptide antibody to the phosphorylated ULight labeled peptide gives rise to a FRET-signal. Binding of an inhibitor to the kinase prevents phosphorylation of the Ulight-substrate, resulting in a loss of FRET. In table 2 is summarized the relevant information for the LANCE assay. Table 2: Reagents, stock concentrations and final assay concentrations for Her2 INS YVMA.
The compounds of general formula (I) summarized in Table 3 were serial diluted from a 10 mM DMSO stock solution 1:3 over 8 steps in a total volume of 20 µl. For every sample, 8 µl of kinase-substrate mix was transferred into a suitable assay plate (e.g. Corning #3673). Compound was added via pintool transfer (10nl/well) using a Biomek FX robot (BeckmanCoulter). Reaction was started by addition of 2µl ATP working solution and mixed using variomag teleshaker (Thermo Fischer Scientific). After 1 h incubation at room temperature the reaction was stopped with 10µl detection mix containing the Eu-labeled phosphospecific antibody and 10mM EDTA. After a second incubation period of 1 h at room temperature the FRET signal was measured at 340 nm excitation, 665 nm and 615 nm emission (for the ULight-substrate and Eu-AB, respectively) with an Envision spectrophotometer (Perkin Elmer, Waltham, MA, USA) with 50 µs delay and 300 µs integration time. IC50 values were determined from the sigmoidal dose response curves with the software Quattro Workflow (Quattro GmbH, Munich, Germany).

The next experiment concerns EGFR L858R Ba/F3. The experiment can be described thus: CellTiter-Glo cell viability, EGFR L858R Ba/F3. It is filed as cell-based. The note with it: Mus musculus, BaF3, 72 h, read-out: EGFR L858R Ba/F3 CTG IC50 /. On the procedure:
as §1

A further experiment has as its target EGFR L858R (Homo sapiens, UniProt P00533, L858R). The experiment can be described thus: Lance assay, EGFR L858R. To be noted: biochemical Lance assay.
The subject of another experiment is A431. Description: CellTiter-Glo cell viability, A431. Format: cell-based. To be noted: Homo sapiens, A-431, 72 h, read-out: A431 CTG IC50. On the procedure:
as §1

A further experiment concerns the target EGFR wt (Homo sapiens, UniProt P00533). The experiment can be described thus: Lance assay, EGFR wt. To be noted: biochemical Lance assay.
Another experiment deals with EGFR vIII Ba/F3. Description: CellTiter-Glo cell viability, EGFR vIII Ba/F3. The note with it: Mus musculus, BaF3, 72 h, read-out: EGFR vIII Ba/F3 CTG IC50 /. It is filed as cell-based. On the procedure:
as §1

Another experiment concerns the target EGFR (del746-750) (Homo sapiens, UniProt P00533, DEL746-750). The experiment can be described thus: Lance assay, EGFR (del746-750). To be noted: biochemical Lance assay.
Experiment [1] concerns EGFR Exon 20 InsNPH Ba/F3. The experiment can be described thus: CellTiter-Glo cell viability, EGFR Exon 20 InsNPH Ba/F3. It is filed as cell-based. To be noted: Mus musculus, BaF3, 72 h, read-out: EGFR Exon 20 InsNPH Ba/F3 CTG IC50. The method, then:
as §1

For experiment [2], the system named is Her2 Exon 20 InsYVMA Ba/F3. The experiment can be described thus: CellTiter-Glo cell viability, Her2 Exon 20 InsYVMA Ba/F3. The note with it: Mus musculus, BaF3, 72 h, read-out: Her2 Exon 20 InsYVMA Ba/F3 CTG IC50. Format: cell-based. On the procedure:
as §1

In another experiment the test system is H1975. Description: CellTiter-Glo cell viability, H1975. The note with it: Homo sapiens, NCI-H1975, 72 h, read-out: H1975 CTG IC50. It is filed as cell-based. On the procedure:
as §1

A further experiment concerns Cuto-17. The experiment can be described thus: CellTiter-Glo cell viability, Cuto-17. Format: cell-based. The note with it: CUTO17, 72 h, read-out: Cuto-17 CTG IC50. On the procedure:
as §1

Structures are written as SMILES. pIC50: −log10 of the molar value.

Chain of EGFR wt (P00533 25-1210): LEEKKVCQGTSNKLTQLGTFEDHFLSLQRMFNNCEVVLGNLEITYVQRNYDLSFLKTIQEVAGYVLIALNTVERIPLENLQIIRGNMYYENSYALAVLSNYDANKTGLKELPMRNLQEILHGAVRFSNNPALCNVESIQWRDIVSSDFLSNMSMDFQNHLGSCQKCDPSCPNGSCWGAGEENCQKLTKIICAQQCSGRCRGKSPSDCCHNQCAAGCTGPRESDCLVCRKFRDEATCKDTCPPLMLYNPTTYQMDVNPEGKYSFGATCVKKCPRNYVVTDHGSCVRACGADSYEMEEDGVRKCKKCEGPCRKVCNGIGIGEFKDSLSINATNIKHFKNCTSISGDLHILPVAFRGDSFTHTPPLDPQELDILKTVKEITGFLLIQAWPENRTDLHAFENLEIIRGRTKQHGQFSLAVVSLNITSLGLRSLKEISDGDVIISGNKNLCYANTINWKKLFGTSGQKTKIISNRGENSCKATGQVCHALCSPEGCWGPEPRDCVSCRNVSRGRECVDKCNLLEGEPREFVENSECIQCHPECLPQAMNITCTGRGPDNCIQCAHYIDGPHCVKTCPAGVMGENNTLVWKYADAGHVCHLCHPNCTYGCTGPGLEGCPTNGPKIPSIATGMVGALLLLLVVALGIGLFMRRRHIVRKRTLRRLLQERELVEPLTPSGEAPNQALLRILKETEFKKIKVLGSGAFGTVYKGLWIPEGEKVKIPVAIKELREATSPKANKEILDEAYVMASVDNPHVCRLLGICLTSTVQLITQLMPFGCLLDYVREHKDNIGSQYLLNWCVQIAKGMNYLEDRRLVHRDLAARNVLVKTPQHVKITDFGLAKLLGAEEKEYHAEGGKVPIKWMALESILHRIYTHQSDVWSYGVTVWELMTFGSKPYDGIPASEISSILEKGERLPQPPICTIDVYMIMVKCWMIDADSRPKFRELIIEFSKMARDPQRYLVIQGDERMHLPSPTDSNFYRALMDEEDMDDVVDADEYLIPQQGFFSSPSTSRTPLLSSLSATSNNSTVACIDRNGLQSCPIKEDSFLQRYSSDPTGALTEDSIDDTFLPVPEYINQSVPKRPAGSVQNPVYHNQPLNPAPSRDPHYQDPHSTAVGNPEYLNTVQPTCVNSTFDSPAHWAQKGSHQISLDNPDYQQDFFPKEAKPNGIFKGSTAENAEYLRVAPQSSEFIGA
Chain of EGFR (del746-750) (P00533 with tags, fused parts or gaps DEL746-750): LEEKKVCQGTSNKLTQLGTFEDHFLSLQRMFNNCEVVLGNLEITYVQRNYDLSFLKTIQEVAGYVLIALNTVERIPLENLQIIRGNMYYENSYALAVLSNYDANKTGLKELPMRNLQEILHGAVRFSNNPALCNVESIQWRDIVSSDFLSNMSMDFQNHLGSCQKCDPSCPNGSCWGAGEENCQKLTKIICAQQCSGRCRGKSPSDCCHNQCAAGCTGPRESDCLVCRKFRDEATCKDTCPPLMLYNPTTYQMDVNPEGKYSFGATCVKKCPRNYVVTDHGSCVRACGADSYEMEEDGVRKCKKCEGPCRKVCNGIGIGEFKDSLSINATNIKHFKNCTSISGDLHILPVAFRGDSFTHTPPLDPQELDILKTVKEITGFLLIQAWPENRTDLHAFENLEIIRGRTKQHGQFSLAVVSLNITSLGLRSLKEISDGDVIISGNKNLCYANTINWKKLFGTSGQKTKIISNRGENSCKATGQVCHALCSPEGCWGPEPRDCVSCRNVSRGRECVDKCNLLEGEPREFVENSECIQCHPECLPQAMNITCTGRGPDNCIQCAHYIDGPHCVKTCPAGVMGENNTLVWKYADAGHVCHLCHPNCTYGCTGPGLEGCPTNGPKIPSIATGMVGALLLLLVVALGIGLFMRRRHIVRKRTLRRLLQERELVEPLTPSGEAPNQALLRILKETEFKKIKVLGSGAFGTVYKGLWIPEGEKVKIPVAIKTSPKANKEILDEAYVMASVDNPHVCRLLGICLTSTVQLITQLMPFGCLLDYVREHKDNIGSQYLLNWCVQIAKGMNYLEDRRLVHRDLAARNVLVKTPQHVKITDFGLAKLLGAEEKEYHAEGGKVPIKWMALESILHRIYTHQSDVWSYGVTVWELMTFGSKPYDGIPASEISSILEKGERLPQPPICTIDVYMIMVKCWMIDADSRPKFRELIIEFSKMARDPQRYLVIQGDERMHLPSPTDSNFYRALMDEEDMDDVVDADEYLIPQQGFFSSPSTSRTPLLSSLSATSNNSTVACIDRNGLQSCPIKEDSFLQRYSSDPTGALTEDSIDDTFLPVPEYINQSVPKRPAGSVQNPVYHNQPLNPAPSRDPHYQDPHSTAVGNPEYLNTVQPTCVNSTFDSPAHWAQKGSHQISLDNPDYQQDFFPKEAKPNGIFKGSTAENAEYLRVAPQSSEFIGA
Chain of EGFR T790M L858R (P00533 25-1210 T790M/L858R): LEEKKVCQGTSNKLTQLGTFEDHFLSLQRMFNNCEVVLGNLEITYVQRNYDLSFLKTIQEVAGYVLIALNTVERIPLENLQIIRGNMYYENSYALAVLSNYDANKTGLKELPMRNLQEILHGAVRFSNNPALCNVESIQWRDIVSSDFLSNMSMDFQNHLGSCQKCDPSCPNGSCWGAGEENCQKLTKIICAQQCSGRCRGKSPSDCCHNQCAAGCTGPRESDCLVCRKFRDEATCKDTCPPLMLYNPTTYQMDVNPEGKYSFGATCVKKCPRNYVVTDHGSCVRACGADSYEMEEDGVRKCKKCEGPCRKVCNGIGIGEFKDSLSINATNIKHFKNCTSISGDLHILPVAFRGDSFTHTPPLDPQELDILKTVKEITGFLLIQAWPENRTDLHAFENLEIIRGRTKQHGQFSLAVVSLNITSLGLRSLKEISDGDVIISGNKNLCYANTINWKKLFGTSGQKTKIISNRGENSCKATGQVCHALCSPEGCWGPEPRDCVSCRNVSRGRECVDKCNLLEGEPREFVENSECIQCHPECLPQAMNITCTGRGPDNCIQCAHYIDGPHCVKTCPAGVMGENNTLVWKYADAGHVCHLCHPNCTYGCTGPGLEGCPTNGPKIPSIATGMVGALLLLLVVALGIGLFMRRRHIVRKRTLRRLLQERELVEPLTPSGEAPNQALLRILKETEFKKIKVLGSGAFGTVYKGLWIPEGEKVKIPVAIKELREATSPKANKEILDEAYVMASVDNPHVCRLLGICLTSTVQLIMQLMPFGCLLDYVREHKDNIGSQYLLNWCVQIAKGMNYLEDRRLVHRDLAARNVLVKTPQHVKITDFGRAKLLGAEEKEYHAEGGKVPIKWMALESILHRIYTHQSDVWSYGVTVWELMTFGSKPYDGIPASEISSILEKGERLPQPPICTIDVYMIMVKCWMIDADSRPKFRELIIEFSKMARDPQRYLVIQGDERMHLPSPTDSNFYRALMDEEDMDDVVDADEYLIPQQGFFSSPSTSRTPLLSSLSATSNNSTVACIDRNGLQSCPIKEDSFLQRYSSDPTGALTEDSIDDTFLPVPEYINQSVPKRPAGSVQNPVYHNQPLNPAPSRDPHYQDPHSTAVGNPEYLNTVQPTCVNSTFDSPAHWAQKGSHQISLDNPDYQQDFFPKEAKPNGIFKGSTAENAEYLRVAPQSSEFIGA
Chain of EGFR L858R (P00533 25-1210 L858R): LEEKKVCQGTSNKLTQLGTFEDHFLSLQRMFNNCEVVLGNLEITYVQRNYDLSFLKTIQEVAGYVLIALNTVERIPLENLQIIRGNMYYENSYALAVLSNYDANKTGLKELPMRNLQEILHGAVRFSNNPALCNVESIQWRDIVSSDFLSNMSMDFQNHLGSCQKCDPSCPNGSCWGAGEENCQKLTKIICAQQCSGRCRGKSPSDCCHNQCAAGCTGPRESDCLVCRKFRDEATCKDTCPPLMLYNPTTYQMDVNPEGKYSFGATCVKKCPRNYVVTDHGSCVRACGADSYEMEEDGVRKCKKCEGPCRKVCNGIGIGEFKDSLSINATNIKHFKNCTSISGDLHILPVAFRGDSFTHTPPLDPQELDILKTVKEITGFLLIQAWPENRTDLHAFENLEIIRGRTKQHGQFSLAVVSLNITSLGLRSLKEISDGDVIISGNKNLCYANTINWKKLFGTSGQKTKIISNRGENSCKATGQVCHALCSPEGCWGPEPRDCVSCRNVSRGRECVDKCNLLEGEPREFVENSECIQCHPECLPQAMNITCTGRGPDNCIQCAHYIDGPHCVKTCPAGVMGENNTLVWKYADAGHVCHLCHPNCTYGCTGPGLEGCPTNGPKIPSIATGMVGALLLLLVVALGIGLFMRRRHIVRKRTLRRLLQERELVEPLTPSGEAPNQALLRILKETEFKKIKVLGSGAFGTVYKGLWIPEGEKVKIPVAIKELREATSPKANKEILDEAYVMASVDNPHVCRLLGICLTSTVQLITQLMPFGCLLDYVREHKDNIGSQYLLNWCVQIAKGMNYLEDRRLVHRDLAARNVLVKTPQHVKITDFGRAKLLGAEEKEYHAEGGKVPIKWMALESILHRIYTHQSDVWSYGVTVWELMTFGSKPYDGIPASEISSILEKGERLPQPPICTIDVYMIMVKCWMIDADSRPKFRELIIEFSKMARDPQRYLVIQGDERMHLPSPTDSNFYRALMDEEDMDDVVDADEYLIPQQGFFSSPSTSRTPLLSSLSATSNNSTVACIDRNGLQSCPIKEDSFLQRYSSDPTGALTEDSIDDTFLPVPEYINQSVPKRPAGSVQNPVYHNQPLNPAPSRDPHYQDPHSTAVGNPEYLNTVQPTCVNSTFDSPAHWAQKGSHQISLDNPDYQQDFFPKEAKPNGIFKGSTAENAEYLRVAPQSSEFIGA

As for `C=CC(=O)Nc1cc(-c2c(-c3cnn(CCO)c3)[nH]c3ncc(C(=O)OC(C)C)c(C)c23)ccc1C` [Example 23, isopropyl 3-(3-acrylamido-4-methylphenyl)-2-(1-(2-hydroxyethyl)-1H-pyrazol-4-yl)-4-methyl-1 H-pyrrolo[2,3-b]pyridine-5-carboxylate], the pIC50 against EGFR T790M L858R is 7.00 to 7.30; in the experiment on EGFR L858R T790M Ba/F3 it was 6.30 to 7.00; against HER2 INS YVMA, 6.30 to 7.00; in the experiment with EGFR L858R Ba/F3, not below 7.30; on EGFR L858R, not below 7.30; in the experiment with A431, 5.00 to 6.00. The pIC50 against EGFR wt was not below 7.30; in the experiment on EGFR vIII Ba/F3 it was 7.00 to 7.30; on EGFR (del746-750), not below 7.30; in experiment [1] it was 6.30 to 7.00; in [2], 6.00 to 6.30.
In the case of `C=CC(=O)Nc1cc(-c2c(-c3cnn(C)c3)[nH]c3ncc(-c4cnn(CCN(C)C)c4)cc23)ccc1C` [Example 34, N-(5-(5-(1-(2-(dimethylamino)ethyl)-1H-pyrazol-4-yl)-2-(1-methyl-1H-pyrazol-4-yl)-1H-pyrrolo[2,3-b]pyridin-3-yl)-2-methylphenyl)acrylamide], the pIC50 against EGFR T790M L858R is 6.30 to 7.00; with EGFR L858R T790M Ba/F3, 5.00 to 6.00; against HER2 INS YVMA, 6.00 to 6.30; in the experiment on EGFR L858R Ba/F3 it was less than 5.00; on EGFR L858R, not below 7.30; in the experiment with A431 it was 5.00 to 6.00. Also, the pIC50 was not below 7.30 against EGFR wt; 5.00 to 6.00 in the experiment on EGFR vIII Ba/F3; not below 7.30 against EGFR (del746-750); 5.00 to 6.00 in experiment [1]; less than 5.00 in experiment [2].
`C=CC(=O)Nc1cc(-c2c(-c3cnn(C)c3)[nH]c3ncc(-c4cn(C)nc4C)cc23)ccc1C` [Example 30, N-(5-(5-(1,3-dimethyl-1H-pyrazol-4-yl)-2-(1-methyl-1 H-pyrazol-4-yl)-1 H-pyrrolo[2,3-b]pyridin-3-yl)-2-methylphenyl)acrylamide]: the pIC50 against EGFR T790M L858R was not below 7.30; in the experiment with EGFR L858R T790M Ba/F3, 6.30 to 7.00; on HER2 INS YVMA, 6.30 to 7.00; in the experiment with EGFR L858R Ba/F3, not below 7.30; at EGFR L858R, not below 7.30; in the experiment on A431, 5.00 to 6.00. The pIC50 is not below 7.30 against EGFR wt; 6.30 to 7.00 with EGFR vIII Ba/F3; not below 7.30 against EGFR (del746-750); 6.30 to 7.00 in experiment [1]; 6.00 to 6.30 in [2].
For `C=CC(=O)Nc1cc(-c2c(-c3cnn(C)c3)[nH]c3ncc(-c4ccnn4C)cc23)ccc1C` [Example 27, N-(2-methyl-5-(2-(1-methyl-1H-pyrazol-4-yl)-5-(-methyl-1 H-pyrazol-5-yl)-1 H-pyrrolo[2,3-b]pyridin-3-yl)phenyl)acrylamide], the pIC50 on EGFR T790M L858R was not below 7.30; in the experiment with EGFR L858R T790M Ba/F3, 6.30 to 7.00; against HER2 INS YVMA it was 6.30 to 7.00; in the experiment on EGFR L858R Ba/F3, not below 7.30; against EGFR L858R, not below 7.30; with A431, 5.00 to 6.00. Moreover, the pIC50 was not below 7.30 on EGFR wt; not below 7.30 in the experiment with EGFR vIII Ba/F3; not below 7.30 against EGFR (del746-750); 6.30 to 7.00 in [1]; 6.00 to 6.30 in experiment [2].
Consider `C=CC(=O)Nc1cc(-c2c(-c3cnn(CC)c3)[nH]c3ncc(C(=O)OC(C)C)c(C)c23)ccc1C` [Example 8, isopropyl 3-(3-acrylamido-4-methylphenyl)-2-(1-ethyl-1 H-pyrazol-4-yl)-4-methyl-1 H-pyrrolo[2,3-b]pyridine-5-carboxylate], for which the pIC50 on EGFR T790M L858R was not below 7.30; against HER2 INS YVMA, not below 7.30; in the experiment with A431, 5.00 to 6.00; on EGFR wt, not below 7.30; in the experiment with EGFR vIII Ba/F3, 6.30 to 7.00; in the experiment on H1975, 6.30 to 7.00. The pIC50 in experiment [1] was not below 7.30; with Cuto-17 it was 6.30 to 7.00; in experiment [2], 6.30 to 7.00.
For `C=CC(=O)Nc1cc(-c2c(-c3cnn(Cc4ccccc4)c3)[nH]c3ncc(C(=O)OC(C)C)c(C)c23)ccc1C` [Example 9, isopropyl 3-(3-acrylamido-4-methylphenyl)-2-(1-benzyl-1 H-pyrazol-4-yl)-4-methyl-1 H-pyrrolo[2,3-b]pyridine-5-carboxylate], the pIC50 on EGFR T790M L858R was 6.30 to 7.00; against HER2 INS YVMA, 6.00 to 6.30; in the experiment on A431, 5.00 to 6.00; against EGFR wt, not below 7.30; in the experiment with EGFR vIII Ba/F3, 6.30 to 7.00; in the experiment on H1975 it was 6.00 to 6.30. The pIC50 in experiment [1] is 6.30 to 7.00; with Cuto-17 it was 6.00 to 6.30; in experiment [2] it was 6.00 to 6.30.
As for `C=CC(=O)Nc1cc(-c2c(-c3cnn(C4COC4)c3)[nH]c3ncc(C(=O)OC(C)C)c(C)c23)ccc1C` [Example 19, isopropyl 3-(3-acrylamido-4-methylphenyl)-4-methyl-2-(1-(oxetan-3-yl)-1 H-pyrazol-4-yl)-1 H-pyrrolo[2,3-b]pyridine-5-carboxylate], the pIC50 was not below 7.30 on EGFR T790M L858R; not below 7.30 against HER2 INS YVMA; 5.00 to 6.00 with A431; not below 7.30 on EGFR wt; 6.30 to 7.00 in the experiment on EGFR vIII Ba/F3; 6.30 to 7.00 in the experiment on H1975. Besides, the pIC50 in experiment [1] was not below 7.30; with Cuto-17, 6.30 to 7.00; in [2] it was 6.30 to 7.00.
`C=CC(=O)Nc1cc(-c2c(-c3cnn(C)c3)[nH]c3ncc(O[C@@H](C)CC)cc23)ccc1C` [Example 12, (S)-N-(5-(5-(sec-butoxy)-2-(1-methyl-1H-pyrazol-4-yl)-1H-pyrrolo[2,3-b]pyridin-3-yl)-2-methylphenyl)acrylamide 2,2,2-trifluoroacetate]: the pIC50 is not below 7.30 against EGFR T790M L858R; not below 7.30 on HER2 INS YVMA; 5.00 to 6.00 in the experiment on A431; not below 7.30 at EGFR wt; 6.30 to 7.00 in the experiment with EGFR vIII Ba/F3; 6.00 to 6.30 with H1975. For the same compound, the pIC50 (in experiment [1]; with Cuto-17; in experiment [2]) was 6.30 to 7.00 in each case.
With `C=CC(=O)Nc1cc(-c2c(-c3cnn(CC4CC4)c3)[nH]c3ncc(C(=O)OC(C)C)c(C)c23)ccc1C` [Example 21, isopropyl 3-(3-acrylamido-4-methylphenyl)-2-(1-(cyclopropylmethyl)-1 H-pyrazol-4-yl)-4-methyl-1 H-pyrrolo[2,3-b]pyridine-5-carboxylate], the pIC50 against EGFR T790M L858R was not below 7.30; against HER2 INS YVMA, 7.00 to 7.30; with A431, 5.00 to 6.00; against EGFR wt, not below 7.30; in the experiment on EGFR vIII Ba/F3, 6.30 to 7.00; in the experiment with H1975, 6.30 to 7.00. Moreover, the pIC50 in experiment [1] is 7.00 to 7.30; in the experiment with Cuto-17, 6.30 to 7.00; in experiment [2], 6.30 to 7.00.
